Data reported in publication PMC9640981, “Plant vernalization proteins contain unusual PHD superdomains without histone H3 binding activity” (The Journal of Biological Chemistry, 2022).

Legend:
Pd VIN3_123-326 = assay: ITC binding to Pd VIN3 PHD superdomain; parameters: species or system Phoenix dactylifera; conditions: 25 °C, Pd VIN3_123-326 with 60-mer DNA
Protocol: VIN3_123-326 from P. dactilyfera was amplified by PCR from synthetic codon optimized genes (gBlocks, Integrated DNA Technologies) and subcloned into pEC-LIC-His-3C (kindly provided by Jurg Muller) containing a hexahistidine tag and a 3C protease cleavage site at the N terminus. VIN3_123-326 was expressed and purified as described previously for VIN3_150-208. In this case, after 3C cleavage overnight, the sample was loaded on a HiLoad 26/600 Superdex 200 pg column (GE Healthcare) in 25 mM Tris pH 8, 150 mM NaCl, and 1 mM DTT.
ITC was carried out at 25 °C with an iTC 200 Microcalorimeter (GE Healthcare) in 25 mM Tris pH 8, 150 mM NaCl, and 1 mM DTT. Titrations consisted of 19 consecutive 2 μl injections of 0.25 to 1 mM peptide solution (following a preinjection of 0.5 μl) into 50 μM protein (VIN3PHD, VIN3_123-326, VIN3_116-307, OBE1_193-372, or pVP13 VIN3_130-299) at time intervals of 120 s. ITC data were analyzed using MicroCal PEAQ-IT Analysis Software (Malvern Sciences).

[1] = test system: ^15N-labeled Pd VIN3_123-326; assay: NMR (BEST-TROSY) interaction of negatively charged polymers with Pd VIN3 PHD superdomain; format: binding, Phoenix dactylifera
Protocol: For NMR spectroscopy, A. thaliana VIN3_150-208 and P. dactilyfera VIN3_123-326 were expressed in M9 minimal medium supplemented with 0.4% glucose, antibiotics, trace elements, 25 ml overnight culture, and 2 g of ^15N-H4Cl per liter of expression culture. Cultures were grown and processed essentially as described before. NMR samples containing 50 μM ^15N-labeled VIN3_150-208 or VIN3_123-326 were prepared in aqueous buffer (25 mM Tris pH 8, 150 mM NaCl, and 1 mM DTT). The 50 μM ^15N-labeled VIN3_150-208 or VIN3_123-326 was incubated with 0.5 mM histone H3 peptides resuspended in 25 mM Tris pH 8, 150 mM NaCl, and 1 mM DTT for >30 min before measurement. Spectra were recorded on a Bruker Avance-III spectrometer operating at 600 MHz ^1H frequency and equipped with a 5 mm inverse detection cryogenic probe. BEST-TROSY shift correlation experiments ([45]) were acquired with 256 × 1024 points in t1 and t2, respectively. Spectra were processed in TopSpin version 3.2 (Bruker), with linear prediction in t1, giving a digital resolution of 2.2 and 8.2 Hz/point in the processed data.
Generation of nucleic acid probes for NMR
FLC DNA was used as a template for the design of a dsDNA 60-mer probe, generated by annealing the sequence (5′ […] 3′) and its complementary oligonucleotide for 2 min at 95 °C. […]

Substance	affinity / binding of nucleic acid (in words) (Pd VIN3_123-326; ITC titrations, pH 8)	Kd (Pd VIN3_123-326; ITC, 25 mM Tris pH 8, 150 mM NaCl, 1 mM DTT, representative profile) [mM]	perturbation of BEST-TROSY spectrum (in words) ([1]; 50 μM ^15N-labeled VIN3_123-326, 4 μM 60-mer dsDNA or 63-mer RNA (Fig. 6A, B), ssDNA comparison E. F.-E., unpublished)	perturbation of BEST-TROSY spectrum, heparin (in words) ([1]; 50 μM ^15N-labeled VIN3_123-326, 4 μM heparin)
60-mer ssDNA: FLC 60-mer predicted to lack secondary structure, 5′ GAAGAAAAAGTAGATAGGCACAAAAAATAGAAAGAAATAAAGCGAGAAAAGGAAAAAAAA 3′ (DNA, backbone and methylation of C not given here)	weak binding in the low millimolar range	~5	less effective in eliciting spectral changes than dsDNA	–
heparin	–	–	–	same set of perturbations
